Series [1] has as its system APP/PS1 TG mice. Kind of series: Y-maze, prophylactic trial. The format is in vivo, mouse. The note with it: PO 100 mg/kg/day, 5 to 12 months of age.
Series [2] deals with APP/PS1 TG mice. Briefly: Morris water maze, prophylactic trial. The format is in vivo, mouse. The note with it: TG mice. Here is the method: Behavioral tests were performed in the following sequence: Y-maze (day 1), Morris water maze (day 4 to 12) and contextual fear conditioning (day 26 to 27). To reduce stress, contextual fear conditioning was carried out 2 weeks after the Morris water maze task. In the therapeutic trial, APP/PS1 TG mice were treated with KMS88009 (30 mg/kg/day) for 3 months from 9 to 12 months of age. Y-maze tests short-term spatial working memory. Y-maze is a 3-armed (40 L×10 W×12 H cm) horizontal maze in which the arms are symmetrically disposed at 120° angles from each other. Mice were placed at the end of one arm and allowed to move freely through the maze during a 5-min session. Arm entry was considered completed when the hind paws of the mouse were completely placed in the arm. Alternation was defined as successive entries into the 3 arms on overlapping triplet sets. The series of arm entries was recorded via video recorders. The percentage of alternation was defined according to the following equation: % alternation = [(number of alternations)/(total arm entries - 2)] ×100. Mice performing fewer than 7 alternations in 5 min were excluded from the subsequent analysis to accurately determine alternation scores. Morris water maze was used to measure spatial learning and memory. A stainless pool apparatus with a diameter of 120 cm was used. A clear escape platform (circle, 12×12 cm) was located 1.0 cm below (hidden) the water surface containing white nontoxic paint. The temperature of water was kept constant throughout the experiment (21±1°C). The visual cues, for mice to recognize the environment and direction, are placed on the walls around the pool. The training was consisted of 8 consecutive days of testing with 4 trials per day. When a mouse was located on the escape platform, it was permitted to remain on the platform for 15 sec. […] Then the subject was returned to its home cage and allowed to dry up after each trial. The platform location was kept constant and the starting position was varied. Each mouse was placed in the water with their nose pointing toward the wall at one of the starting points in a random manner. During each trial session, the time taken to find the hidden platform (latency) was recorded using a video camera-based Ethovision System (Nodulus, Nertherlands). On the 9th day, each mouse was tested on a probe trial. The platform was removed from pool and the mice were allowed to swim for 60 sec to search. Swimming time was recorded during mice were in the pool quadrant where the platform had been previously located. Mice, which float or jump from platform, were eliminated from the experiment since these responses may be incompatible with the behaviors needed to locate and learn the platform position. In addition, animals with difficulty in swimming were also excluded from this study. Fear conditioning task was measured to test the ability to learn and remember an association between an aversive experience and environmental cues. Contextual fear conditioning evaluation was performed using a fear-conditioning chamber (Courlbourn, USA) equipped with a computer-controlled fear conditioning system (FreActimetrics, USA). On the first day of training, each mouse was placed in the conditioning chamber and left to adjust for 2 min. Fear conditioning test was performed with conditional stimulus (CS) of sound (75 dB) for 20 sec followed by unconditional stimulus (US) of electric foot-shock (0.5 mA) for the last 2 sec in CS. After 1 min, the subject was returned to its home cage. After 24 hr, retention test was performed. […] Freezing response was measured without CS or US. Freezing behavior was defined as the complete absence of any movement except for respiration and heartbeat. Animals with no response to the foot-shock during training were excluded from the analysis. Data analyses including recordings of all behavioral responses were performed by keeping research colleagues blind.

A short description of another series: in vitro. As to conditions: monkey, microsomes.

SMILES strings stand for the structures.

Broadly, the half-life is how long it takes for the measured level to halve. The low end stands for fast loss, the high end for slow loss. As usually defined, the share remaining is what is left of the initial amount, in per cent. High values mean less turnover, low ones more turnover.

In the case of `O[C@H]1[C@H](O)[C@@H](O)[C@H](O)[C@@H](O)[C@@H]1O` [Scyllo-inositol, reference compound], the “frequency of spontaneous alternation (Y-maze)” value with APP/PS1 TG mice [1] came to 70.0%. The “Latency (hidden platform)” value in the series with APP/PS1 TG mice [2] (Day 1, dose group +++ (100 mg/kg/day)) came to 49.1 ± 2.4 s; in the series with APP/PS1 TG mice [2] (Day 2, dose group +++ (100 mg/kg/day)), 43.1 ± 2.6 s; in the series with APP/PS1 TG mice [2] (Day 3, dose group +++ (100 mg/kg/day)), 44.7 ± 4.2 s; in the series with APP/PS1 TG mice [2] (Day 4, dose group +++ (100 mg/kg/day)) it was 37.5 ± 4.0 s; in the series on APP/PS1 TG mice [2] (Day 5, dose group +++ (100 mg/kg/day)) it was 44.6 ± 3.3 s; in the series with APP/PS1 TG mice [2] (Day 6, dose group +++ (100 mg/kg/day)), 39.0 ± 4.3 s. Also, the “Latency (hidden platform)” value in the series on APP/PS1 TG mice [2] (Day 7, dose group +++ (100 mg/kg/day)) came to 38.4 ± 4.4 s; in the series with APP/PS1 TG mice [2] (Day 8, dose group +++ (100 mg/kg/day)) it was 37.2 ± 4.3 s.
In “in vitro”, `C[C@]12CC[C@H]3[C@@H](CCC4=CC(=O)CC[C@@]43C)[C@@H]1CC[C@@H]2O` [Testosterone, reference compound] came in with a half-life at 5 µM of 23.4 ± 0.5 min and a fraction remaining at 1 h, 5 µM of 16 ± 0.4%.

Source of the values: publication PMC3997483, “Aminostyrylbenzofuran Directly Reduces Oligomeric Amyloid-β and Reverses Cognitive Deficits in Alzheimer Transgenic Mice” (PLoS ONE, 2014).
